Structures are written as SMILES.

Consider one compound from PMC11666850, “Development and evaluation of deuterated [^18F]JHU94620 isotopologues for the non-invasive assessment of the cannabinoid type 2 receptor in brain” (EJNMMI Radiopharmacy and Chemistry, 2024).

The target of this data set is T1, CB2R (Rattus norvegicus, UniProt Q9QZN9).
T1 construct: from tissue; host or cells: rat spleen: cryosections in vitro, and spleen of living Wistar rats in PET
T1 sequence (Q9QZN9 1-360): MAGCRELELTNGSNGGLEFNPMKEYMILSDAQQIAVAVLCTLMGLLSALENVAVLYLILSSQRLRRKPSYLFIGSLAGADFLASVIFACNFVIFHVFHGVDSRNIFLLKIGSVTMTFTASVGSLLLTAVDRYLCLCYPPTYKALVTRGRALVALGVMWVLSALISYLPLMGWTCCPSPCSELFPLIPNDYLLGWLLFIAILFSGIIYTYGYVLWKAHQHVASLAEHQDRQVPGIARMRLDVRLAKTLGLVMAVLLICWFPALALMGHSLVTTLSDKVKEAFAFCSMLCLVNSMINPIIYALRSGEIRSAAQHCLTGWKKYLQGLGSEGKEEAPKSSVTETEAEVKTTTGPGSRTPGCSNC
The class given is in vivo. The conditions noted are these: male, Wistar, rat, in vivo. On the procedure:
The dynamic biodistribution of the radiotracer in the lower body of rats was assessed by small animal PET (Nanoscan, Mediso, Hungary) over 60 min with a subsequently T1-weighted MR. Anaesthetized (2% isoflurane, carrier gas mixture of 40% air and 60% O2) male Wistar rats (body weight: 205–308 g, age: 8–10 weeks, no gender-specific differences were taken into account) were kept during imaging on a heated animal bed to sustain body temperature and were pretreated with vehicle (DMSO:Kolliphore EL:0.9% saline, 1:2:7), JHU94620-d8 (1.5 mg kg^−1 bodyweight) or with GW405833 (5 mg kg^−1 bodyweight) 5 min prior tracer application ([^18F]JHU94620-d8: 7.7–28.2 MBq, 0.4 to 3.2 nmol kg^−1 bodyweight), whereby all injections were administered intravenously. For the evaluation of the hCB2R-specific binding of the radiotracer in the brain, female Wistar rats (n = 6, 253–269 g, age: 8 month) were used carrying stereotactically injected constructs of AAV2/7-CaMKII0.4-intron-hCB2R(D80N) in the right striatum and AAV2/7-CaMKII0.4-intron-3flag-eGFP in the control/contralateral striatum (Vandeputte et al. [2011]). 21–26 MBq corresponding to 0.2 to 2.0 nmol kg^−1 bodyweight radiotracer were injected, whereas in displacement studies 5 mg kg^−1 bodyweight GW405833 was administered 20 min after the radiotracer (each n = 3). The PET scans were performed six months after the stereotactic injections of the AAV2/7-constructs.
The acquisitions were performed in normal mode and a coincidence mode 1–5. For subsequent dynamic reconstructions list mode data were sorted into sinograms (12 × 10 s, 6 × 30 s, 5 × 60 s and 10 × 300 s). The frames were reconstructed by Ordered Subset Expectation Maximization applied to 3D (OSEM3D) sinograms corrected for decay and attenuation (4 iterations, 6 subsets and a voxel size of 0.4 mm^3) with the Nucline software v2.01 (Mediso, Budapest, Hungary). Analyses of reconstructed studies were performed with PMOD software (v4.205, PMOD Technologies LLC, Fällanden, Switzerland) and results are expressed in standardized uptake values (SUVs) or normalized to a reference region (SUVr).

With `[2H]C([2H])([18F])C([2H])([2H])C([2H])([2H])C([2H])([2H])n1c(C)c(C)s/c1=N\C(=O)C1C(C)(C)C1(C)C` [[^18F]JHU94620-d8], the “SUVr(spleen-to-blood) at late time points” value was “about 1.5” and the “spleen SUVmean at late time points” value is “about 0.5 SUVmean”.
